Among the test systems are OVCAR-4 ovarian; MDA-MB-231 breast; PC-3 prostate; RPMI-8226 leukemia; HCT-116 colon; NCI/ADR-RES ovarian; MDA-MB-435; MOLT-4 leukemia; MCF7 breast; SR leukemia.
Common to all, as to assay: NCI anticancer screen, dose series, 48 h

SMILES strings stand for the structures.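 Results reflect a 48-hour exposure of cells in 96-well plates to compound at five concentrations. At the GI50, growth is halved. TGI: total growth inhibition.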

Take `FC(F)(F)c1ccc(-c2cnc(Br)nc2NC2CCCCCC2)cc1`: the GI50 in the test with OVCAR-4 ovarian is 26 µM; with MDA-MB-231 breast it was 12.3 µM; in the test with PC-3 prostate it was 35.4 µM; with RPMI-8226 leukemia, 7.98 µM; in the test with HCT-116 colon it was 14.4 µM; in the test with NCI/ADR-RES ovarian it was 88.9 µM. The GI50 is above 100 µM in the test on MDA-MB-435, 41 µM with MOLT-4 leukemia, 19.7 µM in the test on MCF7 breast and 30.5 µM in the test on SR leukemia. In addition, the TGI in the test with OVCAR-4 ovarian, in the test with MDA-MB-231 breast, with PC-3 prostate, with RPMI-8226 leukemia, in the test with HCT-116 colon and in the test with NCI/ADR-RES ovarian was above 100 µM throughout. The TGI in the test with MDA-MB-435, in the test on MOLT-4 leukemia, in the test with MCF7 breast and in the test on SR leukemia was above 100 µM each time.
Consider `COc1ccc(C(Nc2ncccn2)c2cc3c(cc2O)OCO3)cc1` (stereo not given), for which the TGI in the test with OVCAR-4 ovarian is above 100 µM; with MDA-MB-231 breast, 48.2 µM; in the test with PC-3 prostate, 43.2 µM; in the test with RPMI-8226 leukemia it was above 100 µM; with HCT-116 colon, 71.3 µM; with NCI/ADR-RES ovarian, above 100 µM. Moreover, the TGI was determined as 50.6 µM in the test on MDA-MB-435, 82 µM in the test with MOLT-4 leukemia, 77.3 µM in the test on MCF7 breast and 32.4 µM in the test with SR leukemia.
Take `COc1ccc2c(c1)OC13Oc4cc(OC)ccc4C=C1CCCC3=C2`: the GI50 was above 100 µM in the test on OVCAR-4 ovarian; above 100 µM with MDA-MB-231 breast; above 100 µM in the test with PC-3 prostate; 6.12 µM with RPMI-8226 leukemia; above 100 µM in the test with NCI/ADR-RES ovarian; 5.52 µM in the test on MDA-MB-435. Also, the values for the GI50 with MOLT-4 leukemia, in the test on MCF7 breast and with SR leukemia were 5.81 µM, 4.8 µM and 4.89 µM, respectively. Further, the TGI in the test on OVCAR-4 ovarian, with MDA-MB-231 breast, in the test with PC-3 prostate, in the test with RPMI-8226 leukemia, with NCI/ADR-RES ovarian and in the test with MDA-MB-435 was above 100 µM each time. The TGI with MOLT-4 leukemia, in the test on MCF7 breast and in the test on SR leukemia was above 100 µM throughout.
On to `CN(Cc1cnc2nc(N)nc(N)c2n1)c1ccc(C(=O)NC(CCC(=O)O)C(=O)O)cc1` (stereo not given), for which the GI50 in the test with OVCAR-4 ovarian was above 100 µM; with MDA-MB-231 breast, above 24 µM; with PC-3 prostate, 2.56 µM; in the test with RPMI-8226 leukemia it was 0.629 µM; in the test with HCT-116 colon, 0.0416 µM; in the test with NCI/ADR-RES ovarian, 0.0722 µM. The GI50 in the test on MDA-MB-435 was 0.0478 µM; in the test on MOLT-4 leukemia it was 0.389 µM; in the test on SR leukemia, 0.05 µM. Moreover, the TGI with OVCAR-4 ovarian, in the test with MDA-MB-231 breast, in the test with PC-3 prostate, with RPMI-8226 leukemia, in the test with HCT-116 colon and with NCI/ADR-RES ovarian was above 100 µM in each case. The TGI in the test on MDA-MB-435, in the test on MOLT-4 leukemia, in the test with MCF7 breast and in the test with SR leukemia was above 100 µM throughout.
Regarding `COc1ccc(/C=C2\N=C3SC=C(N)N3C2=O)cc1`, the GI50 in the test on OVCAR-4 ovarian was 0.485 µM; in the test with MDA-MB-231 breast, 1.05 µM; in the test on PC-3 prostate, 0.559 µM; in the test on RPMI-8226 leukemia, 0.492 µM; in the test on HCT-116 colon, 1.11 µM; in the test with NCI/ADR-RES ovarian it was 2.76 µM. Besides, the GI50 in the test with MDA-MB-435 is 0.808 µM; in the test with MOLT-4 leukemia, 0.28 µM; in the test on MCF7 breast, 0.459 µM; in the test with SR leukemia, 1.02 µM. Besides, the TGI with OVCAR-4 ovarian came out at 11 µM; in the test on MDA-MB-231 breast it was 3.63 µM; with PC-3 prostate it was 3.57 µM; in the test with RPMI-8226 leukemia, 2.99 µM; in the test on HCT-116 colon, 2.61 µM; in the test on NCI/ADR-RES ovarian, 18.6 µM. Besides, the TGI in the test on MDA-MB-435 is 6.06 µM; in the test on MOLT-4 leukemia it was 2.91 µM; in the test with MCF7 breast, 6.29 µM; in the test with SR leukemia it was 4.85 µM.
`c1ccc(-c2nc(N3CCNCC3)c3nc(-c4ccccc4)oc3n2)cc1`: the GI50 in the test with OVCAR-4 ovarian was 1.9 µM; in the test with MDA-MB-231 breast, 1.67 µM; in the test with PC-3 prostate it was 1.66 µM; with RPMI-8226 leukemia, 2.08 µM; with HCT-116 colon it was 1.25 µM; in the test on NCI/ADR-RES ovarian, 1.87 µM. The results for the GI50 in the test on MDA-MB-435, in the test with MCF7 breast and with SR leukemia were 1.79 µM, 1.7 µM and 0.298 µM, respectively. Further, the TGI with OVCAR-4 ovarian worked out at 3.63 µM; in the test on MDA-MB-231 breast it was 3.2 µM; in the test with PC-3 prostate, 3.24 µM; in the test on RPMI-8226 leukemia it was 4.64 µM; in the test on HCT-116 colon it was 2.9 µM; with NCI/ADR-RES ovarian, 3.69 µM. In addition, the TGI with MDA-MB-435 was 3.22 µM; in the test with MCF7 breast it was 3.58 µM; in the test with SR leukemia, 1.2 µM.
Consider `Cn1c(=O)c2[nH]c(COc3ccc(C(C)(C)C)cc3)nc2n(C)c1=O`, for which the GI50 was 41.4 µM in the test on MDA-MB-231 breast; 6.11 µM in the test on PC-3 prostate; 1.08 µM in the test on RPMI-8226 leukemia; 10.2 µM in the test with HCT-116 colon; 8.04 µM in the test with NCI/ADR-RES ovarian; 4.09 µM with MDA-MB-435. For the same molecule, the figures for the GI50 in the test on MOLT-4 leukemia, with MCF7 breast and in the test with SR leukemia were 3.94 µM, 17.1 µM and 5.12 µM, respectively. Besides, the TGI in the test on MDA-MB-231 breast was above 100 µM; in the test with PC-3 prostate, 53.3 µM; with RPMI-8226 leukemia it was 18.4 µM; with HCT-116 colon, above 100 µM; with NCI/ADR-RES ovarian, 60.6 µM; with MDA-MB-435, 35.4 µM. Moreover, the TGI turned out to be 31.2 µM in the test on MOLT-4 leukemia, 62.8 µM with MCF7 breast and 55.9 µM with SR leukemia.
Regarding `O=C(/C=C/c1cccc(Cl)c1)c1ccc(Cl)cc1Cl`, the GI50 in the test on OVCAR-4 ovarian is 13.4 µM; with MDA-MB-231 breast, 13 µM; in the test on PC-3 prostate, 15.2 µM; with RPMI-8226 leukemia it was 1.68 µM; in the test on HCT-116 colon, 20.4 µM; with NCI/ADR-RES ovarian, 11.3 µM. For the same molecule, the GI50 was 8.31 µM with MDA-MB-435, 3.49 µM in the test on MCF7 breast and 0.005 µM with SR leukemia. Besides, the TGI was 41.5 µM with OVCAR-4 ovarian; 34.7 µM in the test with MDA-MB-231 breast; above 50 µM in the test on PC-3 prostate; above 50 µM in the test with RPMI-8226 leukemia; above 50 µM in the test with HCT-116 colon; 21.6 µM in the test with NCI/ADR-RES ovarian. The TGI was 16.8 µM with MDA-MB-435, above 50 µM in the test on MCF7 breast and 4.31 µM in the test with SR leukemia.
`CC(C)C(N)(C(=O)O)c1ccccc1` (stereo not given): the TGI with OVCAR-4 ovarian, with MDA-MB-231 breast, with PC-3 prostate, in the test with RPMI-8226 leukemia, in the test with HCT-116 colon and in the test on NCI/ADR-RES ovarian was above 100 µM each time. The TGI in the test on MDA-MB-435, with MCF7 breast and in the test on SR leukemia was above 100 µM in each case.

(Values after PubChem BioAssay (NCI).)
